Tests used:
HIF-2α = assay: Expression of HIF-2α in mouse knee joint chondrocytes (RT-PCR, qRT-PCR, western blot); format: cell-based; conditions: for expression of HIF-2α: mouse knee joint chondrocytes treated with the cytokine; for expression of HIF-2α transcripts and proteins: signal pathway inhibitor in chondrocytes
Method: In order to induce pathological condition of cartilage degeneration in knee joint chondrocytes of mouse (Charles River, Japan), the cells were treated with interleukin 1β (IL-1β, Calbiochem, USA), IL-17 (R&D Systems, USA), TNF-α (R&D Systems, USA) or IL-21 (R&D Systems, USA), which are known as proinflammatory cytokines. The expression level of HIF-2α was investigated by RT-PCR, qRT-PCR and western blot. The mouse knee joint chondrocytes were isolated from the knee joint of 8-day-old ICR mouse (Charles River, Japan) and cultured in DMEM (Gibco, USA) containing 10% (v/v) fetal bovine serum (Gibco, USA), 50 μg/mL streptomycin (Sigma-Aldrich, USA) and 50 unit/mL penicillin (Sigma-Aldrich, USA). As a result, it was confirmed that whereas the expression of HIF-2α is increased by the proinflammatory cytokines, it is not affected by the anti-inflammatory cytokines IL-4 (R&D Systems, USA), IL-10 (R&D Systems, USA) and […] (R&D Systems, USA) (FIGS. 2a and 2b). IL-1β activates various signal transduction pathways in chondrocytes. Activation of NF-κβ and degradation of IκB protein were confirmed by western blot, and phosphorylation of extracellular signal-regulated kinase (ERK), c-Jun N-terminal kinase (JNK) and p38 MAP kinase from among mitogen-activated protein (MAP) kinase subtypes was confirmed by western blot (FIG. 2c). […] Accordingly, it was confirmed through RT-PCR and western blot (FIG. 2d) and quantification of HIF-2α transcripts by real-time RT-PCR (qRT-PCR) that NFkB and JNK regulate the expression of HIF-2α (FIG. 2e). It was confirmed through immunohistochemical staining that IκB and phosphorylated JNK (pJNK) activating NF-κβ are activated in larger amounts in human degenerative articular cartilage tissue (OA; osteoarthritis) as compared to normal cartilage (Normal).

[1] = system: cartilage degeneration-inducing factors MMP (1, 3, 9, 12, 13), ADAMTS4, PTGS2, NOS2; assay: Expression of cartilage degeneration-inducing factors in chondrocytes after HIF-2α siRNA (RT-PCR, western blot, qRT-PCR); format: cell-based, mouse; conditions: for expression of the cartilage degeneration-inducing factors MMP (1, 3, 9, 12, 13), ADAMTS4, PTGS2, NOS2: siRNA 25, 50, 100 nM for 7 hours, then IL-1β medium 1.5 days, vs C-siRNA 100 nM
Method: Also, the expression of the cartilage degeneration-inducing factors was investigated after artificially inhibiting expression of HIF-2α using an siRNA specific for HIF-2α. More specifically, mouse knee joint chondrocytes were kept in a culture medium for 72 hours. After infecting with control (C-siRNA, 100 nM) or HIF-2α siRNA (25, 50, 100 nM) for 7 hours, the cells were cultured in a medium containing IL-1B for 1.5 days. The cells were recovered and cartilage degeneration-inducing factors were identified by RT-PCR and western blot. GAPDH and lamin B were used as loading control. Also, mRNA (FIG. 3a) and protein (FIG. 3b) levels of HIF-2α, MMP, ADAMTS, PTGS2 and NOS2 were measured by RT-PCR and western blot and their expression level was quantitated by qRT-PCR (FIGS. 3c and 3d). GAPDH and lamin B were used as loading control. Primers used in PCR are described in Table 1. As a result, it was confirmed that the expression of the cartilage degeneration-inducing factors MMP (1, 3, 9, 12, 13), ADAMTS4, PTGs2, NOS2, etc. is decreased as the expression of HIF-2α is inhibited.
(§1) Also, it was confirmed by qRT-PCR that the expression level of these transcripts is increased by Ad-HIF-2α and decreased by siRNA (FIG. 4a). The experimental procedure was the same as with MMP and ADAMT as described above. NOS2 and PTGS2 regulate cartilage degeneration by inducing production of nitric oxide (NO) and prostaglandin E2 (PGE2), respectively. The level of these metabolites was increased by Ad-HIF-2α and decreased by siRNA, as the expression level of PTGS2 and NOS2 transcripts (FIG. 4b).

[2] = system: nitric oxide (NO) and prostaglandin E2 (PGE2); assay: Production of nitric oxide (NO) and prostaglandin E2 (PGE2) in articular chondrocytes; format: cell-based; conditions: mouse knee joint chondrocytes
Excerpt: as §1

MAP kinase = MAP kinase phosphorylation in cytokine-treated chondrocytes; format: cell-based; conditions: cytokine-treated mouse knee articular chondrocytes, HIF-2α-siRNA
Excerpt: According to a preferred embodiment, the siRNA of the present invention has nucleotide sequence included the nucleotide sequence as set forth in SEQ ID NO:1.

Row | Molecule | expression of HIF-2α (HIF-2α) | other results
1 | IL-17: proinflammatory cytokine (R&D Systems, USA) | increased | 
2 | CC(C)(C)c1ccc(S(=O)(=O)/C=C/C#N)cc1 [BAY 11-7085, reference compound] |  | expression of HIF-2α transcripts and proteins (HIF-2α): decreased remarkably
3 | C[S+]([O-])c1ccc(-c2nc(-c3ccncc3)c(-c3ccc(F)cc3)[nH]2)cc1 (stereo not shown) [SB203580, reference compound] |  | expression of HIF-2α transcripts and proteins (HIF-2α): no effect
4 | IL-18: proinflammatory cytokine named in the legend of FIG. 2 | increased | 
5 | interleukin 1β [IL-1β] | increased | 
6 | HIF-2α siRNA: siRNA specific for HIF-2α; mouse sense 5′-AGUUGUUGUAGACUUUCACCUGGC-3′, antisense 5′-GGCCAGGUGAAAGUCUACAACAAC-3′ (SEQ ID NO 4, 5) (listed as RNA, chemistry not given here) |  | expression level of PTGS2 and NOS2 transcripts (qRT-PCR) ([1]; mouse knee joint chondrocytes, siRNA): decreased; expression of the cartilage degeneration-inducing factors MMP (1, 3, 9, 12, 13), ADAMTS4, PTGS2, NOS2 [1]: decreased; expression of the cartilage degeneration-inducing factors MMP (1, 3, 9, 12, 13), ADAMTS4, PTGS2, NOS2 ([1]; listed as HIF-2α-siRNA): markedly decreased; level of metabolites nitric oxide (NO) and prostaglandin E2 (PGE2) [2]: decreased; MAP kinase phosphorylation (MAP kinase): significantly reduced
7 | IL-21: proinflammatory cytokine (R&D Systems, USA) | increased | 
8 | TNF-α | increased | 
9 | COc1cccc(-c2cc(=O)c3ccccc3o2)c1N [PD98059, reference compound] |  | expression of HIF-2α transcripts and proteins (HIF-2α): inhibition effect was slightly weak
10 | IL-4: anti-inflammatory cytokine (R&D Systems, USA) (protein, UniProt P05112 25-153, looked up) Interleukin-4: HKCDITLQEIIKTLNSLTEQKTLCTELTVTDIFAASKNTTEKETFCRAATVLRQFYSHHEKDTRCLGATAQQFHRHKQLIRFLKRLDRNLWGLAGLNSCPVKEANQSTLENFLERLKTIMREKYSKCSS | not affected | 
11 | IL-12: anti-inflammatory cytokine (R&D Systems, USA) (protein, UniProt P29459 23-219; P29460 23-328, looked up) Interleukin-12 subunit alpha: RNLPVATPDPGMFPCLHHSQNLLRAVSNMLQKARQTLEFYPCTSEEIDHEDITKDKTSTVEACLPLELTKNESCLNSRETSFITNGSCLASRKTSFMMALCLSSIYEDLKMYQVEFKTMNAKLLMDPKRQIFLDQNMLAVIDELMQALNFNSETVPQKSSLEEPDFYKTKIKLCILLHAFRIRAVTIDRVMSYLNAS Interleukin-12 subunit beta: IWELKKDVYVVELDWYPDAPGEMVVLTCDTPEEDGITWTLDQSSEVLGSGKTLTIQVKEFGDAGQYTCHKGGEVLSHSLLLLHKKEDGIWSTDILKDQKEPKNKTFLRCEAKNYSGRFTCWWLTTISTDLTFSVKSSRGSSDPQGVTCGAATLSAERVRGDNKEYEYSVECQEDSACPAAEESLPIEVMVDAVHKLKYENYTSSFFIRDIIKPDPPKNLQLKPLKNSRQVEVSWEYPDTWSTPHSYFSLTFCVQVQGKSKREKKDRVFTDKTSATVICRKNASISVRAQDRYYSSSWSEWASVPCS | not affected | 
12 | IL-10: anti-inflammatory cytokine (R&D Systems, USA) (protein, UniProt P22301 19-178, looked up) Interleukin-10: SPGQGTQSENSCTHFPGNLPNMLRDLRDAFSRVKTFFQMKDQLDNLLLKESLLEDFKGYLGCQALSEMIQFYLEEVMPQAENQDPDIKAHVNSLGENLKTLRLRLRRCHRFLPCENKSKAVEQVKNAFNKLQEKGIYKAMSEFDIFINYIEAYMTMKIRN | not affected | 

— patent US8741868B2, “Pharmaceutical composition including an HIF-2 alpha inhibitor as an active ingredient for preventing or treating arthritis” (Gwangju Institute of Science and Technology, priority 2010, dated 2014)
